Source: patent US12187770B2, “Cyclic peptide from novel bone morphogenetic protein 2, preparation method therefor and application thereof” (Hangzhou Huibo Science and Technology Co., Ltd, priority 2019, dated 2025)
Bridge positions count the residues as written; N and C are the ends. Peptide text beside a SMILES is read from it.

Assay: Acute toxicity in animals
Conditions: in vivo

Question: For `CC[C@H](C)[C@@H]1NC(=O)[C@H](C)NC(=O)[C@H](CO)NC(=O)[C@H](CC(C)C)NC(=O)[C@H](CCC(=O)O)NC(=O)[C@H]([C@@H](C)O)NC(=O)[C@@H]2CCCN2C(=O)[C@H](C(C)C)NC(=O)[C@H](CO)NC(=O)[C@H](CO)NC(=O)[C@H](C)NC(=O)[C@H](CCCCN)NC(=O)[C@@H]2CCCN2C(=O)[C@H]([C@@H](C)CC)NC(=O)[C@H](CCCCN)NC(=O)[C@@H](N)CSSC[C@@H](C(=O)O)NC(=O)[C@H](C)NC(=O)[C@H](C(C)C)NC(=O)[C@H]([C@@H](C)CC)NC(=O)[C@H](Cc2c[nH]c3ccccc23)NC(=O)[C@H](CC(=O)O)NC(=O)CNC(=O)CNC(=O)[C@@H]2CCCN2C(=O)CNC(=O)[C@H](CC(C)C)NC(=O)[C@H](Cc2ccc(O)cc2)NC(=O)[C@H](CC(C)C)NC(=O)[C@H](CCSC)NC(=O)[C@H](CO)NC1=O` [M-C-BMP2] (H-CKIPKASSVPTELSAISMLYLGPGGDWIVAC-OH; disulfide 1-31), which “acute toxicity in animals” value is on record?
Answer: has not been found to have acute toxicity in animals
